In patent publication US20240351977A1, “Compositions and Methods For Reducing Immune Intolerance and Treating Autoimmune Disorders” (Lapix Therapeutics, Inc., priority 2021, published 2024):

Assays:
[1] = tested on: FoxP3^+/TIM3^+ CD4 T-cells; assay: In vitro dose-response analysis in murine T-cells (splenocytes, flow cytometry); assay type: cell-based, C57BL/6 mice; details: for change in FoxP3+/TIM3+ CD4 T-cells with dose: 48 μM to 1.5 μM; for EC50 / EC90: Mus musculus, T-cell, increase in percent FoxP3+/TIM3+ CD4 T-cells, 30:70 drug:DMPC liposomes, 4-parameter model, Emax fixed to 7.9%; for EC50: read-out: EC50 mean (SE); for EC90: read-out: EC90 mean (SE)
Protocol: Compound 1 and Compound 2 were each formulated with dimyristoylphosphatidylcholine (DMPC) at a 30:70 drug to lipid molar ratio. Liposomes were synthesized according to Example 2 in PBS.
Splenocytes from naïve C57BL/6 mice were stained with CFSE, prepared, cultured, and dosed. Cells were seeded at 2×10^5 cells/well. Cells were dosed with each compound from 48 μM to 1.5 μM at a log 2 dilution scheme. Cells were incubated for 72 hours before phenotyping for FoxP3^+/TIM3^+ CD4 T-cells. Flow cytometer analysis was performed to assess changes in percent FoxP3^+/TIM3^+ CD4 T-cells as a function of treatment and dose. Concentration versus response was fitted to a four- or five-parameter log-logistic model (using the “drc” package in “R”). The EC50 and EC90 values were obtained by model fitting.

[2] = tested on: FoxP3^+/CD4^+ T-cells; assay: Splenocyte flow cytometry at end of EAE study; assay type: in vivo, mice
Protocol: At the end of the study, spleens were collected from a representative sample of mice from each group for splenocyte analysis. A single-cell suspension was prepared for cellular phenotyping by flow cytometry. Cells were stained and gated for CD4^+T-cells. Percent FoxP3^+/CD4^+ T-cells were evaluated by flow cytometry.

[3] = tested on: FoxP3^+/CD4^+ T-cells; assay: Pharmacodynamic effects of a single PO dose in mice (splenocyte phenotyping); assay type: in vivo; details: for percentage of FoxP3+/CD4+ T-cells, mean value: single oral gavage, 10:90 Compound 2:DMPC
Protocol: Compound 2 was dissolved in DMSO and formulated with 1,2-dimyristoyl-sn-glycero-3-phosphocholine (DMPC) at a molar ratio of 10:90 Compound 2:DMPC, as described in Example 2. Animals were dosed according to Table 7.
To evaluate the PD effects of a single dose of Compound 2 in mice, the animals were administered a single oral gavage as per their group assignment (Table 7). Five days after the oral dose, the animals were sacrificed and their spleens were collected for T-cell phenotyping. The study included an ex vivo analysis followed by a dose-response analysis (FIG. 4A). The spleens collected for splenocyte analysis were prepared into a single-cell suspension for cellular phenotyping by flow cytometry (eBioscience, Inc., San Diego, CA). Cells were stained and gated for CD4. Percent FoxP3^+/CD4^+ T-cells were evaluated using flow cytometry. A dose versus response curve was fitted to a four- or five-parameter log-logistic model (using the “drc” package in “R”). The EC50 and EC90 values were obtained by model fitting.

[4] = tested on: MOG35-55-Induced Murine EAE Model; assay: MOG35-55-induced murine EAE model, prophylactic and therapeutic treatment; assay type: in vivo, mice
Protocol: Compound 2 was formulated with 1,2-distearoyl-sn-glycero-3-phosphocholine (DSPC) at a molar ratio of 3.75:96.25 Compound 2:DSPC. Two test articles were formulated and tested. The first formulation was made with Compound 2:DSPC with MOG35-55, referred to as Compound 2/MOG35-55. Another formulation was made without […], and is referred to as Compound 2. […] The ratio of Compound 2 to DSPC was chosen based on in vitro dose-response studies. Liposomes were prepared as described in Example 2, in PBS and extruded through a […] filter. Animals were dose with 100 μl of 42 μM Compound 2 or 100 μl of 42 μM/1 μg Compound 2/MOG35-55 per mouse PO QD. This dose was selected based on in vitro dose-response analysis.
In the active EAE model, mice are immunized with MOG35-55 peptide emulsified in Complete Freund's Adjuvant (CFA) by subcutaneous injection at the tail base (0.1 mL of emulsion/mouse) under anesthesia. On the day of injection (Day 0) and 2 days later, mice receive an intraperitoneal injection of Pertussis Toxin (PT) in PBS at 600 ng/mouse/dose (0.1 mL).
Symptoms typically develop in mice 9-14 days after immunization (Day 0). Daily observation and scoring of mice start on Day 9 and continue until the end of the study. Table 10 details the expected clinical symptoms and the scoring criteria used in this study.
Mice were dosed with 100 μl of 42 μM Compound 2 or 100 μl of 42 μM of Compound 2 co-formulated with 1 μg of MOG35-55 (Compound 2/MOG35-55) orally QD for the duration of the study.
To evaluate the therapeutic effects of Compound 2, treatment was initiated after the first clinical symptoms were observed. […] The treatment arm received 100 μl of 42 μM Compound 2 PO QD for the remainder of the study. Mice in all groups were monitored and scored daily for clinical symptoms. Once a mouse reached a score of five as per Table 11 or was found dead in the cage it was marked as an event in the survival analysis.

[5] = mouse treated after the onset of symptoms
[6] = four-parameter dose-response model, percent FoxP3+/CD4+ T-cells, single oral dose
[7] = four-parameter dose-response model, single oral dose, 100 μl/mouse

Q: Which results are given for CCCCCCCCCCCCCCCCOC(=O)NC[C@H](N)C(=O)O [Compound 1, (S)-2-amino-3-(((hexadecyloxy)carbonyl)amino) propanoic acid]?
A: increase in FoxP3+/TIM3+ CD4 T-cells over low dose ([1]; 10 μM): 126%; change in FoxP3+/TIM3+ CD4 T-cells with dose [1]: dose-dependent increase; cell appearance via microscope at end of incubation ([1]; 48 μM, 72 hours): did not look healthy; EC50 ([1]; 72 hours): 13.4 µM; EC90 ([1]; 72 hours): 15 µM; FoxP3+/TIM3+ double positive CD4 T-cells, mean value ([1]; high dose, 72 hours): 8.26%; FoxP3+/TIM3+ double positive CD4 T-cells, mean value ([1]; low dose, 72 hours): 3.65%

Q: For CCCCCCCCCCCCCCCCCC(=O)NC[C@H](N)C(=O)O [Compound 2, (S)-2-amino-3-stearamidopropanoic acid], which “increase in FoxP3+/TIM3+ CD4 T-cells over low dose” value ([1]; 30 μM) is on record?
A: Its value is 129%.

Q: What about the toxicity in vitro ([1]; 30 µM dose) of the same compound?
A: Its toxicity in vitro is “less toxicity in vitro compared to Compound 1”.

Q: What about the “change in FoxP3+/TIM3+ CD4 T-cells with dose” value [1] of the same compound?
A: Its value is “dose-dependent increase”.

Q: And the EC50 ([1]; 72 hours)?
A: The EC50 was 14.6 µM.

Q: And the EC90 ([1]; 72 hours)?
A: The EC90 was 17.8 µM.

Q: What about the “FoxP3+/TIM3+ double positive CD4 T-cells, mean value” ([1]; high dose, 72 hours) of the same compound?
A: The value was 7.36%.

Q: And the “FoxP3+/TIM3+ double positive CD4 T-cells, mean value” ([1]; low dose, 72 hours)?
A: The value was 3.21%.

Q: What about the “maximum efficacious dose in vitro” value ([1]; preliminary data) of the same compound?
A: Its value is 42 µM.

Q: What about the “increase of Foxp3+/CD4+ T-cells over the surviving mouse in the untreated group” value [2, 5] of the same compound?
A: The value was 715%.

Q: And the “percent Foxp3+/CD4+ T-cell” value [2, 5]?
A: Its value is 26.1%.

Q: And the “increase of Foxp3+/CD4+ T-cells over control” value ([2]; prophylactic group)?
A: Its value is 225%.

Q: What about the “percent of Foxp3+/CD4+ T-cells” value ([2]; prophylactic group, end of study, control 3.20%) of the same compound?
A: Its value is 10.4%.

Q: What about the “E0 (model estimated), Mean” value [3, 6] of the same compound?
A: Its value is 3.3.

Q: And the Emax (model estimated), Mean [3, 6]?
A: The Emax (model estimated), Mean was 12.1%.

Q: What about the ED50 [3, 7] of the same compound?
A: Its ED50 is 43.1 µM.

Q: What about the ED90 [3, 7] of the same compound?
A: The ED90 was 281.0 µM.

Q: What about the “percentage of FoxP3+/CD4+ T-cells, mean value” ([3]; high dose group, 5 days) of the same compound?
A: Its value is 11.53%.

Q: What about the “percentage of FoxP3+/CD4+ T-cells, mean value” ([3]; low dose group, 5 days) of the same compound?
A: Its value is 3.87%.

Q: And the “increase of FoxP3+/CD4+ T-cells (T-regs), high dose group compared to low dose group” value ([3]; single oral dose, 5 days)?
A: The value was 219%.

Q: What about the “mean clinical score by end of the study” value ([4]; prophylactic) of the same compound?
A: Its value is 2.1.

Q: What about the “disease onset, day after immunization” value ([4]; prophylactic, 100 μl of 42 μM PO QD from four days after immunization, control day 9) of the same compound?
A: Its value is 12 days.

Q: And the “mean clinical score at peak symptoms” value ([4]; prophylactic, day 17, control 4.77)?
A: Its value is 2.6.

Q: What about the “day by which all animals showed symptoms” value ([4]; prophylactic, control 11) of the same compound?
A: The value was 13 days.

Q: And the “delay in disease progression after disease onset” value ([4]; therapeutic, 100 μl of 42 μM PO QD from clinical score of 1)?
A: Its value is “one-day”.

Q: And the “mean clinical score lower than in the untreated arm” value ([4]; therapeutic, by the end of the study)?
A: Its value is 54%.

Q: What about the “mean clinical score at peak symptoms” value ([4]; therapeutic, day 6 after the onset of symptoms, control 4.77 on day 7) of the same compound?
A: Its value is 2.8.

Q: And the “mean clinical score after the peak” value ([4]; therapeutic, day 10 after the onset of symptoms)?
A: Its value is 2.33.

Q: And the “animals that spontaneously died or were euthanized (survival analysis)” value ([4]; untreated group eight out of nine)?
A: The value was “zero out of nine”.
